Experimental findings from PubChem BioAssay AID2005 (Sanford-Burnham Center for Chemical Genomics, 2009) are described below.

The structures appear in SMILES notation. Calls of active or inactive are those of the source.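 How the source made its calls: active means plate Z score at or below -3, or inhibition of at least 30% at 20 µM; inactive means the rest.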

As a reminder, the inhibition is the relative decrease from the control value, in per cent.

A short description of this assay: EGFP reporter destabilization counter-screen – F442A EGFP cells, fluorescence, counter-screen for p/CIP destabilizer project, dose response (AID 2005).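 Further: cells express EGFP alone from a CMV promoter as a counter screen for p/CIP-EGFP.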 Particulars: F442A EGFP cells, EGFP fluorescence, 16 h, stronger effect = higher value.

With `CC(C)OP(=O)(O)NC(=O)c1ccccc1`, the inhibition (EGFP decrease, at 10 µM) is 3.6% and the inhibition (at 20 µM) was 18.5% (inactive).

For `COc1ccc(CC(=O)OC(C)C(=O)c2ccc(C)cc2)cc1` (centres undefined), the inhibition (EGFP decrease, at 10 µM) was 32% and the inhibition (at 20 µM) was 25.4% (inactive).

Regarding `COc1cc(Cl)c(C)cc1NC(=O)CSc1ccc(NC(C)=O)cc1`, the inhibition was 20.2% (EGFP decrease, at 10 µM) and 10.2% (inactive) (at 20 µM).

In the case of `CC(=O)Nc1ccc(NC2=C(Cl)C(=O)c3ccccc3C2=O)cc1`, the inhibition is 3% (EGFP decrease, at 10 µM) and 0.6% (inactive) (at 20 µM).

Take `O=C(Cc1ccccc1)NC(=S)Nc1cccc(C(F)(F)F)c1`: the inhibition by setting is: (EGFP decrease, at 10 µM) 14.2%; (at 20 µM) 16.8% (inactive).

Consider `C=CCN(c1ccccc1)S(=O)(=O)c1ccc(Cl)c(C(=O)OCC(=O)NCCCN2CCCC2=O)c1`, for which the inhibition (EGFP decrease, at 10 µM) came to 16.8% and the inhibition (at 20 µM) is 14.2% (inactive).

`Cc1ccsc1C(=O)OCC(=O)N1CCc2ccccc2C1`: the inhibition is 5% (EGFP decrease, at 10 µM) and 13.3% (inactive) (at 20 µM).

As to `COc1ccccc1CNS(=O)(=O)c1cccc(S(=O)(=O)N2CCOCC2)c1`, the inhibition (EGFP decrease, at 10 µM) was determined as 3.3% and the inhibition (at 20 µM) was 4.8% (inactive).

With `COC(=O)CS(=O)(=O)c1cccc2cccnc12`, the inhibition runs as follows: (EGFP decrease, at 10 µM) 38.4%; (at 20 µM) 19.7% (inactive).

On to `COc1ccccc1CNC(=O)CCCC(=O)n1ncc2cc(C)ccc21`, for which the inhibition (EGFP decrease, at 10 µM) was -25.7% and the inhibition (at 20 µM) is 20.2% (inactive).

On to `CCOc1ccc(C(=O)N2CCc3cc(OC)c(OC)cc3C2)cc1OCC`, for which the inhibition runs as follows: (EGFP decrease, at 10 µM) 9.7%; (at 20 µM) 4.7% (inactive).

With `Cc1ccc(-c2nc(-c3cccnc3)no2)c(C)c1`, the inhibition (EGFP decrease, at 10 µM) was 18.1% and the inhibition (at 20 µM) was 31.1%.

Regarding `CCCCN(CC)C(=O)c1cc2cc3ccc(OC)cc3nc2o1`, the inhibition was 23.8% (EGFP decrease, at 10 µM) and 25.6% (inactive) (at 20 µM).

`COC(=O)c1[nH]c2c(c1C)C(=O)CC(c1cccs1)C2` (centres undefined): the inhibition runs as follows: (EGFP decrease, at 10 µM) 16.8%; (at 20 µM) -4.5% (inactive).

For `O=C(NC(=S)NCc1ccccc1)c1ccc(Br)o1`, the inhibition by setting is: (EGFP decrease, at 10 µM) 23.8%; (at 20 µM) 19.8% (inactive).

On to `CN1CCN(C(=O)c2cccc(S(=O)(=O)N3CCCCC3)c2)CC1`, for which the inhibition is 10.5% (EGFP decrease, at 10 µM) and 20.5% (inactive) (at 20 µM).

`O=C(N/N=C\c1ccc2c(c1)OCO2)c1cncc(Br)c1`: the inhibition by setting is: (EGFP decrease, at 10 µM) 6.5%; (at 20 µM) 7.3% (inactive).

Consider `O=C(CN1CCN(Cc2ccccc2Cl)C1=O)NCc1ccco1`, for which the inhibition (EGFP decrease, at 10 µM) was found to be 17.1% and the inhibition (at 20 µM) is 31.5%.

`COc1ccc(OC)c(Nc2ncnc3c2cnn3-c2ccccc2)c1`: the inhibition was 17.8% (EGFP decrease, at 10 µM) and 9.9% (inactive) (at 20 µM).

For `CCCC(C)C1(CC)C(=O)NC(=Nc2ccc(F)cc2)NC1=O` (centres undefined), the inhibition (EGFP decrease, at 10 µM) came out at 37.5% and the inhibition (at 20 µM) was 27.3% (inactive).

Take `C=CCC(NCc1ccco1)c1ccc(OC)cc1OC` (centres undefined): the inhibition (EGFP decrease, at 10 µM) was found to be 22.1% and the inhibition (at 20 µM) was -5.4% (inactive).

Turning to `COCCC(=O)N1CCC(Oc2ccc(C(=O)N3CCCCCCC3)cc2)CC1`, the inhibition by setting is: (EGFP decrease, at 10 µM) 1.3%; (at 20 µM) 14% (inactive).

`Cc1cccc(N(CC(=O)NCCc2ccccc2)C(=O)c2csnn2)c1`: the inhibition runs as follows: (EGFP decrease, at 10 µM) 4.8%; (at 20 µM) 17.2% (inactive).

`O=C(CN1CCC(n2nnc3cc(F)ccc32)CC1)NC1CC1`: the inhibition was -7.1% (EGFP decrease, at 10 µM) and -1.4% (inactive) (at 20 µM).

As to `O=c1ccn(Cc2ccccc2Cl)cc1`, the inhibition by setting is: (EGFP decrease, at 10 µM) 33.3%; (at 20 µM) 14.1% (inactive).

For `Cc1c(NC(=O)C(C)OC(=O)/C=C/c2ccco2)c(=O)n(-c2ccccc2)n1C` (centres undefined), the inhibition by setting is: (EGFP decrease, at 10 µM) 10.9%; (at 20 µM) -5.3% (inactive).

For `O=C(COC(=O)c1cnccn1)c1ccc(OC(=O)c2ccccc2)cc1`, the inhibition (EGFP decrease, at 10 µM) amounted to 21% and the inhibition (at 20 µM) is 17% (inactive).

As for `O=C(O)c1cccc(NC(=O)C2C3C=CC(C3)C2C(=O)O)c1` (centres undefined), the inhibition was 17.4% (EGFP decrease, at 10 µM) and 18% (inactive) (at 20 µM).

For `CC(=O)N1[C@H](Cc2ccccc2)C=C[C@]1(C)C(=O)NCc1ccccn1`, the inhibition by setting is: (EGFP decrease, at 10 µM) -7.6%; (at 20 µM) 8.7% (inactive).

On to `Cc1ccccc1-c1cc2c(nn1)-c1ccccc1C2=O`, for which the inhibition was 32.1% (EGFP decrease, at 10 µM) and 6.4% (inactive) (at 20 µM).

For the compound `Cc1cc(CN(C)C(=O)c2ccc3nc(Cc4ccccc4F)oc3c2)on1`, the inhibition was 21.3% (EGFP decrease, at 10 µM) and 8.5% (inactive) (at 20 µM).

Turning to `Nc1ccc2nc(-c3ccc(-c4nc5ccc(N)cc5[nH]4)cc3)[nH]c2c1`, the inhibition is, setting by setting: (EGFP decrease, at 10 µM) 15.4%; (at 20 µM) 25% (inactive).

Take `Cc1onc(-c2ccccc2Cl)c1C(=O)NCc1cccnc1`: the inhibition is 22.1% (EGFP decrease, at 10 µM) and 15.9% (inactive) (at 20 µM).

Consider `Cc1nn(C)c(Cl)c1S(=O)(=O)N[C@@H](c1ccccc1)[C@]1(C)C[C@H]1[C@@H](C)C(=O)Nc1ccc2ccccc2c1`, for which the inhibition reads like this: (EGFP decrease, at 10 µM) 34.6%; (at 20 µM) 11.3% (inactive).

For the compound `CCOCCCNC(=O)c1cc2c(=O)n3cccc(C)c3nc2s1`, the inhibition by setting is: (EGFP decrease, at 10 µM) -2.1%; (at 20 µM) 12.9% (inactive).

As for `Cc1ccc(S(=O)(=O)CCSc2nc(C)cc(C(F)(F)F)c2C#N)cc1`, the inhibition runs as follows: (EGFP decrease, at 10 µM) -55.8%; (at 20 µM) -128% (inactive).

With `Cc1ccc2c(COC(=O)CNC(=O)c3ccccc3)cc(=O)oc2c1`, the inhibition reads like this: (EGFP decrease, at 10 µM) 5.9%; (at 20 µM) -2.9% (inactive).

Regarding `C/C(=C/C=C/[C@@H](C)C(=O)O)[C@H]1CN[C@H](C(=O)O)[C@H]1CC(=O)O`, the inhibition runs as follows: (EGFP decrease, at 10 µM) -8.3%; (at 20 µM) 10.3% (inactive).

On to `CC(=O)c1c(N2CCN(Cc3ccc4c(c3)OCO4)CC2)nc(=S)n(-c2ccccc2)c1C`, for which the inhibition reads like this: (EGFP decrease, at 10 µM) 7.3%; (at 20 µM) 23.7% (inactive).

Turning to `Nc1ncnc2c1ncn2[C@H]1C[C@H](O)[C@@H](CO)O1`, the inhibition was 1.2% (EGFP decrease, at 10 µM) and 26.2% (inactive) (at 20 µM).

For the compound `Cc1cc2c(c(Sc3ccccc3)n1)C(=O)OC2`, the inhibition is, setting by setting: (EGFP decrease, at 10 µM) -4%; (at 20 µM) -3.5% (inactive).

`O=C(O)[C@@H]1CCCN1c1ncnc2sc3c(c12)CCC3`: the inhibition is 0.9% (EGFP decrease, at 10 µM) and 31.1% (at 20 µM).

On to `CC(C)c1csc(CN2CCCC(CNC(=O)c3cccc4ccccc34)C2)n1` (centres undefined), for which the inhibition runs as follows: (EGFP decrease, at 10 µM) 15%; (at 20 µM) 4.5% (inactive).

As to `CC(C)CC(=O)Nc1ncnc2c1C(=O)CC(C)(C)C2`, the inhibition was 11.5% (EGFP decrease, at 10 µM) and 12.2% (inactive) (at 20 µM).

As to `O=c1c2ccccc2[nH]c2ccccc12`, the inhibition was 13.8% (EGFP decrease, at 10 µM) and 18.3% (inactive) (at 20 µM).

With `Cc1ccsc1/C=N\NC(=O)CCc1c(C)n[nH]c1C`, the inhibition is, setting by setting: (EGFP decrease, at 10 µM) 4%; (at 20 µM) -13.2% (inactive).

`O=C(c1ccccc1)N1CCCC(c2nc3c(nnn3Cc3ccccc3)c(=O)[nH]2)C1` (centres undefined): the inhibition is 32.3% (EGFP decrease, at 10 µM) and 16.2% (inactive) (at 20 µM).
